Experimental data reported in PMC5344255, “Design, Synthesis and Biochemical Evaluation of Novel Selective Estrogen Receptor Ligand Conjugates Incorporating an Endoxifen-Combretastatin Hybrid Scaffold” (Biomedicines, 2016).

What was measured:
Format in all cases: cell-based
[1] = system: MCF-7 human breast cancer cells; test: MTT assay for antiproliferative effects in MCF-7; conditions: for inhibition at 10 µM: MCF7, MCF-7, read-out: growth inhibition
Protocol: (§1) The human breast carcinoma cell line, MCF-7, was purchased from the European Collection of Animal Cell Cultures (ECACC). The cells were maintained in MCF-7 complete medium; consisting of Eagle’s Minimum Essential Medium (MEM) supplemented with 10% (v/v) Foetal Bovine Serum (FBS), 2 mM L-glutamine, 100 μg/mL penicillin/streptomycin and 1% (v/v) non-essential amino acids. Cell cultures were maintained at 37 °C under a humidified atmosphere of 5% CO2/95% O2. The human breast carcinoma cell line, MDA, was purchased from the European Collection of Animal Cell Cultures (ECACC). The cells were maintained in MDA complete medium; consisting of Dulbecco’s Modified Eagle’s Medium (D-MEM) supplemented with 10% (v/v) Foetal Bovine Serum (FBS), 2 mM L-glutamine, 100 μg/mL penicillin/streptomycin. Cell cultures were maintained at 37 °C under a humidified atmosphere of 5% CO2/95% O2. The MTT assay was performed according to the reported protocol. The tetrazolium salt, 3-(4,5-dimethylthiazol-2-yl)-2,5-diphenyltetrazolium bromide (MTT) is taken up only by metabolically active cells and cleaved to form a formazan dye by mitochondrial dehydrogenases. Assays where repeated in three experiments performed in triplicate (unless otherwise stated) and reported results represent the mean value ± standard error mean. Graphs of percentage cell viability versus concentration of the subject compound were processed using PRISM [31].

[2] = system: MCF-7 human breast cancer cells; test: Lactate dehydrogenase (LDH) cytotoxicity assay in MCF-7; conditions: % cell lysis at 10 µM
Protocol: (§2) In this assay, the release of cytoplasmic lactate dehydrogenase (LDH) is used as a measure of cell lysis. MCF-7 and MDA-MB-231 cells were seeded at a density of 1 × 10^4 cells/well in a 96-well plate and incubated for 24 h. The cells were then dosed with 2 μL volumes of the test compounds, over the concentration range 1 nM–50 μM. Cytotoxicity was determined using the CytoTox 96 nonradioactive cytotoxicity assay (Promega, Madison, WI, USA) following the manufacturer’s protocol.

[3] = system: MDA-MB-231 human breast cancer cells; test: MTT assay for antiproliferative effects in MDA-MB-231; conditions: MDA-MB-231, MTT assay
Protocol: as §1, with “Cell cultures were maintained at 37 °C under a humidified atmosphere of 5% CO2/95% O2.” left out, “Assays where repeated in three experiments performed in triplicate (unless otherwise stated) and reported results represent the mean value ± standard error mean.” left out

[4] = system: MDA-MB-231 human breast cancer cells; test: Lactate dehydrogenase (LDH) cytotoxicity assay in MDA-MB-231; conditions: % cell lysis at 10 μM
Protocol: as §2

[5] = Homo sapiens, MCF7, MCF-7, MTT assay, mean of at least three experiments in triplicate
[6] = Homo sapiens, MCF7, MCF-7, MTT assay, values in nM
[7] = MCF-7, MTT assay, mean of at least three experiments in triplicate

Row | SMILES | IC50 [1, 5] [nM] | % Cell Death at 10 μM [2] [%] | IC50 [3] [nM] | % Cell Death at 10 μM [4] [%] | other results
1 | CCC(=C(c1ccc(O)cc1)c1ccc(OCCN(C)C(=O)/C(=C/c2ccc(OC)cc2)c2cc(OC)c(OC)c(OC)c2)cc1)c1ccccc1 (mixture of isomers) [Compound 29, (E)-N-(2-{4-[(E/Z)-1-(4-Hydroxyphenyl)-2-phenylbut-1-enyl]phenoxy}-ethyl)-3-(4-methoxyphenyl)-N-methyl-2-(3,4,5-trimethoxyphenyl)acrylamide] | 87 | 12 | 30600 | 2 | 
2 | CCC(=C(c1ccc(O)cc1)c1ccc(OCCN(C)C(=O)/C(=C/c2ccc(OC)cc2)c2cc(OC)c(OC)c(OC)c2)cc1)c1ccc(O)cc1 (mixture of isomers) [Compound 30, (E)-N-(2-{4-[(E/Z)-1,2-Bis-(4-hydroxyphenyl)but-1-enyl]phenoxy}ethyl)-3-(4-methoxyphenyl)-N-methyl-2-(3,4,5-trimethoxyphenyl)acrylamide] | 43 | 19 | 6290 | 7 | 
3 | CCC(=C(c1ccc(O)cc1)c1ccc(OCCN(C)C(=O)/C(=C/c2ccc3c(c2)OCO3)c2ccc(OC)cc2)cc1)c1ccccc1 (mixture of isomers) [Compound 33, (E)-3-Benzo[1,3]dioxol-5-yl-N-(2-{4-[(E/Z)-1-(4-hydroxyphenyl)-2-phenylbut-1-enyl]phenoxy}ethyl)-2-(4-methoxyphenyl)-N-methylacrylamide] | 1470 | 8 | 5230 | 0 | 
4 | CCC(=C(c1ccc(O)cc1)c1ccc(OCCN(C)C(=O)/C(=C/c2ccc3c(c2)OCO3)c2ccc(OC)cc2)cc1)c1ccc(O)cc1 (mixture of isomers) [Compound 34, (E)-3-Benzo[1,3]dioxol-5-yl-N-(2-{4-[(E/Z)-1,2-bis-(4-hydroxyphenyl)but-1-enyl]phenoxy}ethyl)-2-(4-methoxyphenyl)-N-methylacrylamide] | 49 | 6 | 680 | 16 | 
5 | CCC(=C(c1ccc(O)cc1)c1ccc(OCCN(C)C(=O)/C(=C/c2ccc3ccccc3c2)c2cc(OC)c(OC)c(OC)c2)cc1)c1ccccc1 (mixture of isomers) [Compound 35, (E)-N-(2-{4-[(E/Z)-1-(4-Hydroxyphenyl)-2-phenylbut-1-enyl]phenoxy}ethyl)-N-methyl-3-naphthalen-2-yl-2-(3,4,5-trimethoxyphenyl) acrylamide] | 1510 | 0 | 2160 | 0 | 
6 | CCC(=C(c1ccc(O)cc1)c1ccc(OCCN(C)C(=O)/C(=C/c2ccc3ccccc3c2)c2cc(OC)c(OC)c(OC)c2)cc1)c1ccc(O)cc1 (mixture of isomers) [Compound 36, (E)-N-(2-{4-[(E/Z)-1,2-Bis-(4-hydroxyphenyl)but-1-enyl]phenoxy}ethyl)-N-methyl-3-naphthalen-2-yl-2-(3,4,5-trimethoxyphenyl)acrylamide] | 3620 | 3 | 4320 | 0 | IC50 [1, 6]: 1.51 nM
7 | CCC(=C(c1ccc(O)cc1)c1ccc(OCCN(C)C(=O)/C(=C/c2ccc(C)cc2)c2cc(OC)c(OC)c(OC)c2)cc1)c1ccccc1 (mixture of isomers) [Compound 37, (E)-N-(2-{4-[(E/Z)-1-(4-Hydroxyphenyl)-2-phenylbut-1-enyl]phenoxy}ethyl)-N-methyl-3-p-tolyl-2-(3,4,5-trimethoxyphenyl)acrylamide] | 1750 | 2 |  |  | IC50 [1, 6]: 3.62 nM
8 | CCC(=C(c1ccc(O)cc1)c1ccc(OCCN(C)C(=O)/C(=C/c2ccc(C)cc2)c2cc(OC)c(OC)c(OC)c2)cc1)c1ccc(O)cc1 (mixture of isomers) [Compound 38, (E)-N-(2-{4-[(E/Z)-1,2-Bis-(4-hydroxyphenyl)but-1-enyl]phenoxy}ethyl)-N-methyl-3-p-tolyl-2-(3,4,5-trimethoxyphenyl)acrylamide] | 372 | 12 |  |  | 
9 | CCC(=C(c1ccc(O)cc1)c1ccc(OCCN(C)C(=O)/C(=C/c2ccc(SC)cc2)c2cc(OC)c(OC)c(OC)c2)cc1)c1ccccc1 (mixture of isomers) [Compound 39, (E)-N-(2-{4-[(E/Z)-1-(4-Hydroxyphenyl)-2-phenylbut-1-enyl]phenoxy}ethyl)-N-methyl-3-(4-methylsulfanylphenyl)-2-(3,4,5-trimethoxyphenyl) acrylamide] | 790 | 3 |  |  | 
10 | CCC(=C(c1ccc(O)cc1)c1ccc(OCCN(C)C(=O)/C(=C/c2ccc(SC)cc2)c2cc(OC)c(OC)c(OC)c2)cc1)c1ccc(O)cc1 (mixture of isomers) [Compound 40, (E)-N-(2-{4-[(E/Z)-1,2-Bis-(4-hydroxyphenyl)but-1-enyl]phenoxy}ethyl)-N-methyl-3-(4-methylsulfanylphenyl)-2-(3,4,5-trimethoxyphenyl)acrylamide] | 64 | 2 |  |  | 
11 | CC/C(=C(\c1ccc(O)cc1)c1ccc(OCCN(C)C)cc1)c1ccccc1 [4-Hydroxytamoxifen, reference compound] |  |  | 18000 | 0 | 
12 | COc1ccc(/C=C(/C(=O)O)c2cc(OC)c(OC)c(OC)c2)cc1O [Compound 13] | 120 |  |  |  | 
13 | COc1ccc(/C=C(/C(=O)O)c2cc(OC)c(OC)c(OC)c2)cc1 [Compound 14] | < 10000 |  |  |  | IC50 [1, 7]: 7800 nM
14 | COc1ccc(/C=C(/C(=O)O)c2cc(OC)c(OC)c(OC)c2)cc1F [Compound 15] | 55100 |  |  |  | 
15 | COc1ccc(/C(=C\c2cc(OC)c(OC)c(OC)c2)C(=O)O)cc1 [Compound 23] | > 50000 |  |  |  | 
16 | COc1ccc(/C(=C\c2ccc3c(c2)OCO3)C(=O)O)cc1 [Compound 25] |  |  |  |  | IC50 [1, 7]: > 50000 nM
17 | COc1ccc(/C(=C\c2cc(OC)c(OC)c(OC)c2)C(=O)N2CCCC2)cc1 [Compound 48, (E)-2-(4-methoxyphenyl)-1-(pyrrolidin-1-yl)-3-(3,4,5-trimethoxyphenyl)prop-2-en-1-one] | > 50000 |  |  |  | 
18 | COc1ccc(/C=C(/C(=O)N2CCCCC2)c2cc(OC)c(OC)c(OC)c2)cc1O [Compound 49, (E)-3-(3-hydroxy-4-methoxyphenyl)-1-(piperidin-1-yl)-2-(3,4,5-trimethoxyphenyl)prop-2-en-1-one] | > 50000 |  |  |  | 
19 | COc1ccc(/C=C(/C(=O)N2CCCC2)c2cc(OC)c(OC)c(OC)c2)cc1 [Compound 52, (E)-3-(4-Methoxyphenyl)-1-(pyrrolidin-1-yl)-2-(3,4,5-trimethoxyphenyl)prop-2-en-1-one] | > 50000 |  |  |  | 
20 | COc1ccc(/C=C(/C(=O)N2CCCCC2)c2cc(OC)c(OC)c(OC)c2)cc1 [Compound 53, (E)-3-(4-Methoxyphenyl)-1-(piperidin-1-yl)-2-(3,4,5-trimethoxyphenyl)prop-2-en-1-one] |  |  |  |  | inhibition at 10 µM ([1]; Homo sapiens): 35%
21 | COc1ccc(/C=C(/C(=O)N2CCCC2)c2cc(OC)c(OC)c(OC)c2)cc1N [Compound 54, (E)-3-(3-Amino-4-methoxyphenyl)-1-(pyrrolidin-1-yl)-2-(3,4,5-trimethoxyphenyl)prop-2-en-1-one] | > 50000 |  |  |  | 
22 | COc1ccc(/C=C(/C(=O)N2CCCCC2)c2cc(OC)c(OC)c(OC)c2)cc1N [Compound 55, (E)-3-(3-Amino-4-methoxyphenyl)-1-(piperidin-1-yl)-2-(3,4,5-trimethoxyphenyl)prop-2-en-1-one] |  |  |  |  | inhibition at 10 µM ([1]; Homo sapiens): 34%
